melting point [°C]	SMILES
94 to 96	CC[C@H](C)C(OCc1ccccc1F)[C@H]1[C@H]([N+](=O)[O-])[C@@H](c2cccs2)N[C@@H]1C(=O)NCCC(=O)O (some centres not stated)
156 to 157	COc1c(Cl)cc(F)c(-n2ncc(C(F)(F)F)cc2=O)c1N
156 to 158	FC(F)(F)c1ccc(-c2ccnc(Oc3ccc4cccnc4c3)c2)cc1
83 to 86	COC(=O)CCCCCNC(=O)C(CO)NS(=O)(=O)c1ccc(Cl)cc1 (racemic)
171 to 172	O=C(O)c1ccc(-n2ncc3ccccc32)cc1
217 to 222	COC(=O)c1ccc(-c2cc(C(=O)NC3CC3)cc(F)c2C)c(C(=O)O)c1
69 to 70	Nc1cc(F)ccc1C(=O)Oc1ccccc1
102 to 103	Cc1ccc2c(c1)c1c(n2CCBr)C(=O)CCC1
225 to 226	CC(C)c1cc(C(C)C)c(C(=O)Nc2ccc(C(=O)O)cc2)[nH]1
208 to 210	NC(=O)/C=C/c1cc([N+](=O)[O-])ccc1Cl
45 to 46.5	CC(C)(C)[Si](C)(C)Oc1cc(Cl)cc(C(=O)C(F)(F)F)c1N
84 to 85	CCOC(=O)C(=O)c1cc(Cl)c(C)cc1F
180 to 182	CCn1cc(C(=O)O)c(=O)c2cc(F)c(N3CC(CNC)C3)nc21
220 to 222	COc1ccc(C=NNC(=O)COc2ccc(C3=NNC(=O)CC3)cc2Cl)cc1
111 to 112	CCOC(=O)c1cn(C)c2sc(CCl)cc2c1=O
115 to 116	CC(=O)Nc1ncc(C(C)=O)cc1C
120 to 121	CCC(Br)C(=O)c1ccc(OC)c(OCC(F)(F)F)c1 (configuration not stated)
104 to 105	COC(=O)c1nc(C#N)ccc1OCc1ccccc1
111 to 113	Cc1c(Br)ccc(N)c1C#N
188 to 190	CCC(CC)Nc1cc(C(=O)O)ccc1N1C(=O)CCC1(CO)CCO (configuration not stated)

melting point [°C]	SMILES
91 to 94	CC(C)(C)C(=O)Oc1cc2c(s1)CCN(C(C(=O)C1CC1)c1ccccc1F)C2 (configuration not stated)
143 to 146	COc1ccc(N(Cc2cnn(Cc3ccc(F)cc3)c2)C(=O)C2CCCc3c(O)cccc32)cc1 (configuration not stated)
78	CCCCCC(=O)OCc1nccc(O)n1
92 to 94	CC(C)Oc1ccc(CCCOc2nn(C)cc2CC(=O)O)c(Oc2ncc(C(F)(F)F)cc2Cl)c1
171 to 173	COC(=O)c1cccc(CC2COc3ccc(OCc4nc5cc(F)ccc5s4)cc3C2O)c1 (configuration not stated)
218 to 220	CC(C)NC(=O)OCC1CSC2=C(O1)c1ccccc1C(=O)C2=O (configuration not stated)
103	C=Cc1cnc(-c2ccccn2)nc1
72 to 76	C=CCOCc1ccc(-c2ncccc2S(=O)(=O)Nc2ncc(C)nc2OC)cc1
217 to 219	CCCOc1ccccc1-c1nc2nc(S(C)(=O)=O)ncc2c(=O)[nH]1
123 to 124	CC#Cc1ccc(NC(=O)c2ccccc2NCc2ccc(OC)nc2)cc1C(F)(F)F
223 to 224	CCCCSc1c(N)cc(C(=O)O)cc1S(N)(=O)=O
95 to 97	Cn1c(-c2ccccc2F)nnc1S(C)=O (configuration not stated)
74 to 76	C=CCOc1ccc2oc(C(=O)c3ccc(OC)cc3)c(C)c2c1
171 to 172	COc1cc(OC)c(-c2cccs2)cc1/C=C/C(=O)c1ccc(S(=O)(=O)NCCN2CCOCC2)cc1
99 to 101	C[C@H](O)[C@H](CNC(=O)c1ccccc1)C(=O)O
157 to 160	CCCC(=O)c1cnc2ccc(O)cc2c1Cl
144 to 145	CCCOC(=O)c1c(CBr)nc2cc(OC)c(OC)cc2c1-c1ccc(OC)c(OC)c1
235 to 237	COc1ccccc1CNC(=O)c1[nH]c2ccc(Cl)cc2c1S(=O)(=O)c1ccccc1
134 to 138	CCCCC(CC)CNc1cccc(-c2ccnc3c(C(=O)c4cccs4)cnn23)c1 (configuration not stated)
203 to 206	O=C(O)Cn1cc(Cc2nc3c(F)c(F)cc(F)c3s2)c2c(Cl)cccc21

The remaining lines, values behind:

SMILES	melting point [°C]
O=C1NC(=O)C(Cc2ccc([N+](=O)[O-])cc2)N1 (configuration not stated)	> 235
Cc1cc2c(N=C3SC[C@@H]4Cc5ccccc5CN34)cccc2cn1	181
CC(C)N=C(NC#N)Nc1cc(Cl)cc(Cl)c1	156 to 158
CN1C(=O)[C@H](NC(=O)/C=C/c2ccccc2Cl)N=C(c2ccccc2)c2ccccc21	128 to 131
O=C(NCc1ccccc1)c1cc2c(=O)n(Cc3ccccc3)c(=O)[nH]c2s1	> 255
O=C1Nc2ccc(NCCCc3ccccc3)cc2C12OCCO2	106 to 108
Cc1cccc(C)c1CCC(CCc1c[nH]cn1)CCc1c(C)cccc1C	147 to 150
CCCc1nc2ccc(C#N)cc2n1Cc1ccccc1Cl	124 to 126
CC(C)N(C(=O)CN1C(=O)CC(=O)N(c2ccccc2)c2ccccc21)c1ccc(C(F)(F)F)cc1	186 to 188
CC=Cc1nc2cc3c(cc2[nH]1)NC(=O)C3(C)C	252 to 254
CCOC(=O)NC(C)=N	111 to 114
CCC(C)(CCCCCCC(C)(CC)C(=O)O)C(=O)O (configuration not stated)	117 to 118
O=C1NC(=O)c2cc(CCCCCN3CCC(c4nc(-c5ccncc5)c(-c5ccc(Cl)c(Cl)c5)[nH]4)CC3)ccc21	129 to 134
CN(C1CCS(=O)(=O)C1)S(=O)(=O)c1ccc(Nc2nccc(Nc3ccc(F)cc3)n2)cc1 (configuration not stated)	236 to 240
CCOC(=O)C=C1CCC(n2nc(-c3c(-c4ccccc4)nn4ccccc34)ccc2=O)CC1 (configuration not stated)	166 to 168
Cc1ccc(-c2c(C#N)cccc2C#N)cc1	184 to 186
O=c1[nH]c2cccnc2n1CCCO	145 to 148
N#Cc1ccc(-c2csc(N3C(=O)OCC34CC4)n2)cc1	219 to 221
CCC(OC(C)=O)c1ccc(Cl)c2nc3n(c12)CCCN3c1ccc(N(C)C)nc1C (configuration not stated)	165 to 166
O=C1C(Br)=CN=CC1Br (configuration not stated)	320
Cc1ccc(-c2nc(C#N)c(-c3cccc(Cl)c3)n2-c2cc(Cl)ccc2C)cc1C	218

SMILES	melting point [°C]
OC(C=Cc1ccco1)c1cnc2sc3c(n12)CCCCC3 (configuration not stated)	177 to 180
CCN1CCN2C(=O)c3ccccc3C12c1ccc(Cl)cc1 (configuration not stated)	114
CCOC=Nc1c(S(=O)C(F)(F)F)c(C#N)nn1-c1c(Cl)cc(C(F)(F)F)cc1Cl (configuration not stated)	63
COC(=O)c1c(Cc2ccc(C(=O)N(C)C)nc2)c(=O)c2ccc(C)nc2n1-c1ccccc1	235 to 236
Cc1nnc(C(C)C)n1C1CC2CCC(C1)N2CCC(NC(=O)C1CCC(F)(F)CC1)c1ccc(NC(=O)COCC(=O)NCCCCCCCN)cc1 (configuration not stated)	100 to 102
OC1(c2ccc(-c3ccccn3)cc2)CN2CCC1CC2 (configuration not stated)	237 to 238
CC1(C)CNC(=O)N1CC#CCN1CCCC1	50
CC(=O)N1C(C)(C)CC(OC(=O)CC(c2cc(C(C)(C)C)c(O)cc2C)c2cc(C(C)(C)C)c(O)cc2C)CC1(C)C	270
COc1ccc(-n2c(=O)n(OCc3ccccc3)c(=O)c3cc(F)c(F)cc32)cc1	211 to 212
O=C(O)c1ccc(S(=O)(=O)NCCSC2c3ccccc3COc3ccc(OCc4ccc5ccccc5n4)cc32)cc1 (configuration not stated)	113 to 115
CN1C(=O)[C@H](NC(=O)/C=C/c2ccc([N+](=O)[O-])cc2)N=C(c2ccccc2)c2ccccc21	165 to 166
COC(=O)c1ccc2ccc(S(=O)(=O)N(Cc3ccccc3)Cc3ccccc3)cc2c1	141 to 142
OCCCC#Cc1cnc(-c2ccccc2)c(-c2ccccc2)n1	88 to 90
CC(=O)Nc1c(I)c(C(=O)NC(CO)CO)c(I)c(C(=O)NC(CO)CO)c1I	> 270
Cc1cc(C(=O)N2CCC3(CC2)CSC2=C(O3)c3ccccc3C(=O)C2=O)c(C)o1	234 to 235
CN1CCC(Oc2ccccc2)(c2ccccc2)CC1	99 to 101
CC1=C(/C=C/C(=O)N2CCN(C(N)=O)CC2)C(C)(C)CCC1	144
O=C(O)c1cc2ccccc2n1Cc1cc([N+](=O)[O-])cc2[nH]c(=O)c(=O)[nH]c12	> 300
OC1CCC2(CC1)CCC(CCc1ccoc1)CC2 (configuration not stated)	66 to 69
O=C(Cc1ccccc1O)N1CCOCC1	122
Nc1nc(COCCO)nc2nccnc12	149 to 151

SMILES	melting point [°C]
CN1C(=O)CC[C@]2(C)c3ccc(-c4ccc(F)c(F)c4F)cc3CC[C@@H]12	100 to 102
Oc1ncnc2[nH]c(-c3ccncc3)cc12	> 260
C#CCP(=O)(O)CCCN	172 to 173
CN1C(C)(C)CC(C(O)CNc2nc(Cl)nc(NCC(O)C3CC(C)(C)N(C)C(C)(C)C3)n2)CC1(C)C (configuration not stated)	166 to 176
O=C(CC(C(=O)O)c1ccccc1)Nc1cc(Cc2n[nH]c(=O)c3ccccc23)ccc1F (configuration not stated)	180 to 183
CCOC(C)O[C@H]1C(=O)N[C@H]1C1CCCCC1 (some centres not stated)	87 to 89
Cc1nc(-c2ccc3c(c2)NC(=O)CO3)c(-c2ccccc2)s1	221 to 230
CC(C)=CCNc1ncnc2nc(N(C)C)[nH]c12	246 to 249
N#Cc1c(F)cccc1-c1ccccc1	78 to 79
O=C(O)CCNC(=O)CCC(=O)Nc1cccc2ccccc12	180 to 182
CC(C)(C)C(=O)c1c[nH]c2ncc(N3C(=O)CCc4ccccc43)nc12	257 to 259
Cc1cccc(CCN2CCC[C@H](C(C#N)(c3ccccc3)c3ccccc3)C2)c1	149 to 150
CCCn1nc(-c2cc(C(C)(C)C)c(O)c(C(C)(C)C)c2)c2cccnc21	97 to 98
Cc1cc(C)n(-c2nc(Nc3ccccc3C)c3ccccc3n2)n1	240 to 244
COc1ccc(S(=O)(=O)N2CCCC2)cc1	88 to 89
CCCCCCCCCCCCCCCCSCC(CN)NC(=O)OC(C)(C)C (configuration not stated)	46 to 47
CC1CCCCC1Nc1c(C(=O)O)cnn2cccc12 (configuration not stated)	195
O=C(O)CCCCCCCCC=Cc1ccco1	45 to 46
O=C1Cc2ccc(S(=O)(=O)Cl)cc21	80
COc1nsc(S(C)(=O)=O)c1C#N	167 to 168
